Assay results from patent US20240423204A1, “METHOD AND USE OF AN ENANTIOMER OF 3,4-DIHYDROXYPHENYLALANINE (DOPA) FOR ENHANCING PLANT ATTRACTIVENESS TO BENEFICIAL INSECTS” (BIOBAB R&D, S.L., priority 2021, published 2024).

Columns and labels:
[1] = tested on: bean plants (Phaseolus vulgaris); experiment: VOC induction assay on bean plants (Phaseolus vulgaris) in hydroponic medium; assay type: in vivo; settings: 10 μg, 24 h
Protocol: Beans (Phaseolus vulgaris cv CGB0002) were sown in sterile vermiculite and kept in a glasshouse at 27° C. After 17 days, the seedlings were gently removed from the vermiculite. They were then placed in glass beakers containing 150 mL of hydroponic solution made with Hoagland's modified basalt salt mixture, (MP, USA), and maintained in an environmental chamber at 27° C. Each beaker, containing one seedling, was wrapped in aluminum foil to hold the plants in position and to prevent the light from reaching the roots. After 2 days plants were treated with L-DOPA (10 μg), D-DOPA (10 μg) or HPLC water (control, 10 μl).
(§1) After 24 h, the volatile organic compounds (VOCs) emitted from the plant were collected through a dynamic headspace.
(§2) The bean plants were enclosed in a glass vessel with a volume of 3.2 I. The bottom of the vessel was enclosed around the top of the pot. Air that had been purified by passage through an activated charcoal filter (BDH, 10-14 mesh) was pushed into (750 ml·min^−1) and pulled (700 ml·min^−1) out of the vessel. VOCs were trapped onto Porapack™ (Porous Polymer Adsorbent) 50/80 mesh (50 mg; Supelco, Bellefonte, USA) held in glass tubing (5 mm outer diameter) by two plugs of silanised glass wool. The Porapack™ tube was conditioned by washing with redistilled diethyl ether (2 ml) and heating at 130° C. for 4 h under a stream of purified nitrogen.
(§3) VOCs collected on the Porapak™ were eluted with 750 μL of redistilled diethyl ether and the samples were stored at −20° C. until analysis.
(§4) For the analysis, four samples (1 μL) from each treatment (L-DOPA, D-DOPA and Control) were analyzed on an Agilent 7820A Gas Chromatograph (Agilent Technologies, Santa Clara, California, USA), equipped with a cool column injector, flame ionization detector (FID), and a HP-1 capillary GC column (50 m×0.32 mm internal diameter×0.52 μm film thickness). Hydrogen was the carrier gas. The oven temperature was maintained at 30° C. for 0.1 min, then programmed to increase at 10° C.·min^−1 until 250° C., and then held for 38 min. Tentative identifications were made by Kovats' Index values and GC peak enhancement on GC columns of HP-1, using authentic samples of chemicals compounds.

[2] = tested on: bean plant (Vicia faba) leaves; experiment: Estimation of total phenolic content in bean plant (Vicia faba) leaves, Folin-Ciocalteu assay; assay type: in vivo; settings: soil/vermiculite, 10 μg in 30 mL, 24 h
Protocol: The estimation of total phenolic content in bean plant leaves (Vicia faba) was based on the procedure developed by Ainsworth, E.A. et al. (2007) using Folin-Ciocalteu (F-C) reagent. F-C assay is commonly been used to assay total phenolic content. The F-C assay provides a convenient, rapid, and simple estimation of the content of total phenolics, and other oxidation substrates in plant extracts.
Broad bean (Vicia faba cv Histal) plants were grown in a mixture of sterile soil/vermiculite (7:3) for 10 days, and treated with L-DOPA (10 μg), D-DOPA (10 μg) or HPLC water (control, 10 μl) dissolved in 30 mL of distilled water. After 24 h harvest leaves material (approximately 20 mg) in screw-capped tubes and freeze immediately in liquid nitrogen.
To homogenize the tissue, three tungsten carbide beads and 2 ml of ice-cold 95% (vol/vol) methanol were added in each sample tube and insert samples into pre-cooled Teflon adaptors. Tissue was homogenized for 5 min at 30 Hz. […]
Finally, a […] sample, standard or blank from the assay tube were transferred to a clear 96-well micro-plate and the absorbance of each was measured at 750 nm using a spectrophotometer.
For calculate the total phenolic content, first a standard curve from the blank-corrected A750 of the gallic acid standards was calculated. […]

bean plants (Vicia faba) [3] = experiment: VOC induction assay on bean plants (Vicia faba) in hydroponic medium; assay type: in vivo; settings: 10 μg
Protocol: Broad beans (Vicia faba cv Histal) were potted in sterile vermiculite and kept in a glasshouse at 23° C. After 7 days, the seedlings were gently removed from the vermiculite, the cotyledons peeled and the roots rinsed with bidistilled water, carefully brushing away all soil particles. They were then placed in glass beakers containing a hydroponic solution made with Hoagland's modified basalt salt mixture, (MP, USA), and maintained in an environmental chamber at 23° C. Each beaker, containing three seedlings, was wrapped in aluminum foil to hold the plants in position and to prevent the light from reaching the roots. Every 4 days, the hydroponic solution in each beaker was renewed. After 10 days plants were treated with L-DOPA (10 μg), D-DOPA (10 μg) or HPLC water (control, 10 μl) dissolved in 30 mL of distilled water.
as §2, §3, §4

many plants = settings: allelochemical effect, Nishihara et al (2004); cited from earlier work
[4] = tested on: wheat plants (Triticum monococcum); experiment: VOC induction assay on wheat plants (Triticum monococcum) in soil; assay type: in vivo; settings: 10 μg in 30 mL, 24 h
Protocol: Wheat (Triticum monococcum VAR Tocayo) plants were grown in sterile soil for 15 days (20 seeds per pot), and treated with L-DOPA (10 μg), D-DOPA (10 μg) or HPLC water (control, 10 μl) dissolved in 30 mL of distilled water.
as §1
as §2, with “wheat” for “bean”, “nitrogen. […]” for “nitrogen.”
(§5) For the analysis, four samples (1 μL) from each treatment (L-DOPA, D-DOPA and Control) were analyzed on an Agilent 7820A Gas Chromatograph (Agilent Technologies, Santa Clara, California, USA), equipped with a cool column injector, flame ionization detector (FID), and a HP-1 capillary GC column (50 m×0.32 mm internal diameter×0.52 μm film thickness). […]

[5] = tested on: bean plants (Phaseolus vulgaris); experiment: VOC induction assay on bean plants (Phaseolus vulgaris) in soil; assay type: in vivo; settings: 10 μg in 30 mL, 24 h, cis-3-hexenyl acetate and ocimene
Protocol: Bean (Phaseolus vulgaris cv CGB0002) plants were grown in sterile soil for 5 days, and treated with L-DOPA (10 μg), D-DOPA (10 μg) or HPLC water (control, 10 μl) dissolved in 30 mL of distilled water.
as §1
as §2, with “nitrogen. […]” for “nitrogen.”
as §5

bean plants (Vicia faba) [6] = experiment: VOC induction assay on bean plants (Vicia faba) in soil/vermiculite; assay type: in vivo; settings: 10 μg in 30 mL, 24 h, 6-methyl-5-hepten-2one, cis-3-hexen-1-ol, cis-3-hexenyl acetate, ocimene
Protocol: Broad beans (Vicia faba cv Histal) plants were grown in a mixture of sterile soil/vermiculite (7:3) for 10 days, and treated with L-DOPA (10 μg), D-DOPA (10 μg) or HPLC water (control, 10 μl) dissolved in 30 mL of distilled water.
as §1
as §2, with “nitrogen. […]” for “nitrogen.”
as §5

Aphidius ervi = experiment: Behavioral assay in two-way olfactometer, bean plants (Vicia faba) treated by soil application; assay type: in vivo; settings: 10 min, Vicia faba 3-4 weeks, versus clean plant
Protocol: Broad bean seeds (Vicia faba cv Aguadulce supersimonia) were planted individually in plastic pots (6×6×9 cm) filled with Traysubstrat topsoil (Klasmann-Deilmann GmbH) or a mixture of agriperlite, vermiculite, and sand (1:1:1) and grown in an environmental chamber (24±2° C., 45±10% RH, 14 h: 8 h L: D).
For this example, bean plants of 3-4 weeks were used. Plants were treated by soil application of the two isomers of DOPA: 3,4-dihydroxy-L-phenylalanine (Alfa Aesar, CAS Number 59-92-7) and 3,4-dihydroxy-D-phenylalanine (Sigma Aldrich, CAS Number 5796-17-8).
Untreated plants were also used as control.
The attractiveness of beneficial insects, specifically Aphidius ervi, towards a bean plants treated with the isomers of DOPA compared to clean bean plant (control) was evaluated in an olfactometer.
The behavioral response of A. ervi were evaluated over 10 min in a two-way olfactometer. Only active insects, i.e. insects that spent at least 60 s in the treatment (trt) and/or control (cnt) arm of the olfactometer were taken into account.
The results obtained in this example are expressed as a percentage of residence time in each olfactometer arm where the parasitoid remained, relative to the total time spent in the two arms. Paired t-tests were conducted using R (free software environment for statistical computing and graphics).

Row | Compound | concentration of 6-methyl-5-hepten-2one versus control [1] | concentration of cis-3-hexen-1-ol versus control [1] | concentration of cis-3-hexenyl acetate versus control [1] | concentration of ocimene versus control [1] | total phenolic content versus untreated plants (control) [2] | concentration of 6-methyl-5-hepten-2one versus control (bean plants (Vicia faba) [3]) | concentration of cis-3-hexenyl acetate versus control (bean plants (Vicia faba) [3]) | concentration of ocimene versus control (bean plants (Vicia faba) [3]) | growth of plants (especially radicle and hypocotyl) (many plants) | concentration of ocimene versus control [4] | concentration of VOCs (FID response) versus control [5] | concentration of VOCs (FID response) emitted by the plant versus control (bean plants (Vicia faba) [6]) | residence time of A. ervi females on treated bean plants, higher than for untreated plants (Aphidius ervi)
1 | N[C@@H](Cc1ccc(O)c(O)c1)C(=O)O [L-DOPA, L-3,4-dihydroxyphenylalanine] | A change is observed | A change is observed | A change is observed | A change is observed | higher | A change is observed | A change is observed | A change is observed | reduced the growth | A change is observed | A change is observed | A change is observed | approx. +20%
2 | N[C@H](Cc1ccc(O)c(O)c1)C(=O)O [D-DOPA, D-3,4-dihydroxyphenylalanine] | – | A change is observed | – | A change is observed | higher | A change is observed | A change is observed | A change is observed | – | – | – | A change is observed | approx. +20%
